Patent publication US10351519B2, “Sulfamate derivative compounds, processes for preparing them and their uses” (BIO-PHARM SOLUTIONS CO., LTD., priority 2016, dated 2019)

How the values were obtained:
Assay type in all cases: in vivo
ICR mice [1] = test: Chemical induced seizure model (PIC, picrotoxin)
Experimental: Picrotoxin (PIC) were used to induce the behavioral seizures in the experiments. Male ICR mice (purchased from Orient Bio Inc. Korea) of body weight 19-26 g (mice) were used for these studies. The test materials were administered intraperitoneal (ip) route in a volume of 10 ul/g (mice) weight in mice, respectively. Pharmacological effects of the test materials were evaluated to compared test groups (n=6) with a control group (n=6). Control group was administrated vehicle, only. The peak time was determined by administration of test material's random dose for 0.5, 1, 2, 4 hour. The time that the most protect was defined as a peak time and ED50 was determined by other dose administration at the peak time. Chemical (PIC) was dissolved in 0.9% saline and administered subcutaneously (s.c.) at its CD97 (convulsive dose 97%), the dose of Chemical (PIC) that produced clonic seizures in 97% into a loose fold of skin in the midline of the neck in a volume of 10 ul/g (mice) body weight. The animals were then transferred to observation cages and observed continuously for 45 min (PIC). Clonic seizure was elicited in approximately 97% of control group. Protection was defined as a complete absence of clonic seizure over the 45-min observation period. The effective dose of compound necessary to protect against generalized convulsive seizures to 50% of controls (i.e. ED50) was determined by log probit analysis using SPSS software program (SPSS Inc.). (Reference; White H. S., J. H. Woodhead, K. S. Wilcox, J. P. Stables, H. J. Kupferberg, and H. H. Wolf. General Principles; Discovery and Preclinical De-velopment of Antiepileptic Drugs. In: R. H. Levy, R. H. Mattson, B. S. Meldrum, and E. Perucca, eds. Antiepileptic Drugs, 5th Ed. Lippincott Williams & Wilkins, Philadelphia 2002: pp. 36-48.) The obtained results are shown in following Table 10.

ICR mice [2] = test: Anti-epilepsy activity, MES test, mouse
Experimental: (§1) In the MES test (Ref., G. Villetti et al. Neuropharmacology 40 (2001) 866-878), an electrical stimulus (mice: 50 mA, 60 Hz, 0.2 sec, and rats: 150 mA, 60 Hz, 0.2 sec in the test animal) supplied by an 11A Shocker (IITC Life Science Company) was delivered through corneal electrodes. All mice or rats assigned to any electroshock at peak time were treated with each test compound sample which was dissolved in 30% PEG 400 or 20% tween 80 prepared by saline solvent applied orally before the test. […] Three doses of the test sample were administered orally to 9-18 animals (3-6 mice per dose) for evaluating the respective doses at which 50% of the animals were protected from seizure (ED50). The ED50 value (median effective dose) was calculated by Litchfield and Wicoxon log-probit method which is a dose-response relationship. Experimental animals, male ICR mice and male SD rats, were purchased from OrientBio, Samtako, or Nara Biotech, Korea, and housed in cages (4-5 mice or 3 rats per cage) for 4-5 days. The range of mice body weight was between 19 and 25 grams and range of rats body weight was between 100 and 130 grams.

Sprague-Dawley rats [3] = test: Antiallodynic activity on Chung model (SNL, spinal nerve ligation); settings: orally
Description: Male Sprague-Dawley rats (100-130 g, Orient Bio, Korea) were habituated for 1 week before the experiment and allowed free access to food and water throughout the experimentation. Room temperature and humidity were maintained at 24±2 and 50±10%, respectively. The neuropathic surgery (SNL, Spinal nerve ligation) model was done as described in Kim and Chung (1992). Briefly, an animal was put under gaseous anesthesia with isoflurane. The left lumber spinal nerve L5 and L6 were isolated and tightly ligated with 6-0 silk thread. The wound muscle was closed with Catgut® chrom 3/0 thread and skin was closed with Dafilon 3/0 tread. Sham controls were prepared in the same manner with the spinal nerves exposed, but with no ligated L5 and L6 nerves. Preparation of the vehicle controls were identical to the group treated with compound, except for administration of vehicles without compound in the vehicle control group.
Tactile sensitivity (Mechanical allodynia) was evaluated using von Frey monofilaments before and after treatment, and animals were included in the study only if the withdrawal threshold value was less than 4 g. One week after surgery, SNL-operated animals, sham-operated animals and vehicle control animals were tested for tactile sensitivity with von Frey monofilaments 3 trials in each animal. All Animals were placed in a stainless steel mash chamber and habituated for 30 min in the test cage. The tactile sensitivity for the ipsilateral hind paw was measured using the up-and-down method (Dixon, 1980) with seven von Frey monofilaments (0.4, 1, 2, 4, 6, 8, and 15 g) in 3 trials. The tactile sensitivity test was followed by Dixon's method (Dixon, 1980). The 50% paw withdrawal threshold for each paw was calculated using the following formula: [Xth] log=[vFr] log+ky where [vFr] is the force of the last von Frey used, k=0.2249 which is the average interval (in log units) between the von Frey monofilaments, and y is a value that depends upon the pattern of withdrawal responses (Dixon, 1980).
All animals were fasted 18 h before the administration of the compounds. Antiallodynic effect of compounds were evaluated at the three dose, orally administrated in a volume of 5 ul/g, bw in a vehicle of 30% (v/v) PEG 400 or 20% (v/v) Tween 80. The test was performed at the peak time of efficacy after compound administration.
The relative values compared to the sham group (% control) were calculated and shown in Table 3, which show an antiallodynic effect of the test compounds on SNL model in rats.

Sprague-Dawley rats [4] = test: Antiallodynic activity on Complete Freund's Adjuvant (CFA)-induced inflammatory pain model; settings: intraperitoneally
Experimental: Male, Sprague-Dawley rats (210-250 g, Nara Bio, Korea) were habituated for 1 week before CFA injection and allowed free access to food and water throughout the experimentation. Room temperature and humidity were maintained at 24±2 and 50±10%, respectively.
CFA-induced inflammatory pain was induced by the procedure of Nagakura et al. (2003) and Gregory P. et al. (2010) with minor modifications. CFA (sigma, USA) was injected in the right plantar with a 100 ul volume under gaseous anesthesia with isoflurane. Sham controls were injected with 100 ul of saline and preparation of the vehicles without compound in the vehicle control group. Tactile sensitivity (Mechanical allodynia) was evaluated using von Frey monofilaments before and after treatment, and the animals were included in the study only if the withdrawal threshold value was less than 4 g. One week after surgery, CFA-infused treatment animals (n=4-6), sham-operated animals (n=12), and vehicle control animals (n=17) were tested for tactile sensitivity with von Frey monofilaments 3 trials for each animal. All Animals were placed in a stainless steel mesh chamber and habituated for 30 min in the test box. The tactile sensitivity for ipsilateral hind paw was measured using the up-and-down method (Dixon, 1980) with seven von Frey monofilaments (0.4, 1, 2, 4, 6, 8, and 15 g) to 3 trials. Tactile sensitivity test was followed by Dixon's method (Dixon, 1980). The 50% paw withdrawal threshold for each paw was calculated using the following formula: [Xth] log=[vFr] log+ky where [vFr] is the force of the last von Frey used, k=0.2249 which is the average interval (in log units) between the von Frey monofilaments, and y is a value that depends upon the pattern of withdrawal responses (Dixon, 1980).
Antiallodynic effect of compound was evaluated at the dose of 10-60 mg/kg (n=4-6), intraperitoneally administrated in a volume of 5 ul/g bw in a vehicle of 30% (v/v) PEG or 20% (v/v) Tween 80. The test was performed peak time of efficacy (0.5 or 1 hr) after compound administration.
The relative values compared to the sham (% control) were calculated and shown in Table 4, which show an antiallodynic effect of Compound 1 on CFA-induced pain model in rats.

Sprague-Dawley rats [5] = test: Lithium-pilocarpine induced epilepsy test, prevention; settings: i.p.
Experimental: Male Sprague-Dawley rats (purchased from Orient Bio Inc. Korea) of body weight 175-200 grams were used for these studies and 3 rats per cage were housed for 4-5 days. On the day prior to SE, rats received 127 mg/kg lithium chloride (Sigma, St. Louis, Mo., U.S.A.) intraperitoneally (i.p.). Approximately 18-20 h following this treatment, rats were given an i.p. injection of CD97 dose (30-43 mg/kg) pilocarpine (Sigma). An i.p. injection of 2 mg/kg methyl-scopolamine (Sigma) was administered 30 min prior to pilocarpine to block the effects of the muscarinic agonist on peripheral cholinergic receptors. Test drugs were dissolved in 30% PEG 400 or 20% tween80 (Sigma).
The drugs were administered intraperitoneally (i.p.) in a volume of 2 ul/g body weight. Pharmacological effects of all of the test materials were evaluated to compare test groups (n=6) with a control group (n=6). Control group was administered vehicle only. The efficacy was measured 0.5, 1, 2, or 4 hours after the administration of the test material. The time point that the most animals were protected was defined as peak time and the ED50 was determined at peak time. The animals were then transferred to observation cages and observed continuously for 90 min. Seizure was elicited in approximately 95% of the control group. Protection was defined as complete absence of seizure grade 3-5 (Racine scale; Racine, 1972) over the 90-min observation period. The effective dose of the compound necessary to protect 50% of the animals against seizures compared to controls (i.e. ED50) was determined by a curve fitting program (Excel 2007, Microsoft).

SD rats = test: Anti-epilepsy activity, MES test, rat
Experimental: as §1

## C[C@@H](OS(N)(=O)=O)[C@H](OS(N)(=O)=O)c1ccccc1Cl [Example 85]
ICR mice [1]
  PIC(ip) Peak Time: 4 h
ICR mice [1]; 30 mg/kg
  PIC(ip) efficacy %: 30(33.3%)
ICR mice [2]
  MES test (po) Peak time: 2 h
ICR mice [2]; po, 100 mg/kg, read-out: MES test (po) efficacy %
  responders at 100 mg/kg: 16.6%

## COCO[C@@H](c1ccccc1Cl)[C@H](C)OS(N)(=O)=O [Example 69, (1S, 2S)-1-(2-chlorophenyl)-1-(methoxymethoxy)propan-2-yl sulfamate]
Sprague-Dawley rats [3]; Rattus norvegicus, po, at peak time
  ED50: 48.2 mg/kg
Sprague-Dawley rats [3]
  SNL Peak Time: 1 h
Sprague-Dawley rats [4]; Rattus norvegicus, ip, at peak time
  ED50: 29.5 mg/kg
Sprague-Dawley rats [4]
  CFA-induced pain model Peak Time: 0.5 h
Sprague-Dawley rats [5]
  Lithium pilocarpine model (pre) peak time: 1 h
Sprague-Dawley rats [5]; 50 mg/kg
  Lithium pilocarpine model (pre) efficacy %: 33.3%
SD rats
  MES test (po) Peak time: 1 h
SD rats; 20 mg/kg
  MES test (po) efficacy %: 16.6%
